Key:
Format in all cases: in vivo, human
women = test: Suppression of pituitary and ovarian hormones in women
Excerpt: The term “Elagolix” refers to 4-((R)-2-[5-(2-fluoro-3-methoxy-phenyl)-3-(2-fluoro-6-trifluoromethyl-benzyl)-4-methyl-2,6-dioxo-3,6-dihydro-2H-pyrimidin-1-yl]-1-phenyl-ethylamino)-butyric acid or a pharmaceutically acceptable salt thereof. Elagolix is an orally active, non-peptide GnRH antagonist and is unlike other GnRH agonists and injectable (peptide) GnRH antagonists. […] Methods of making Elagolix and a pharmaceutically acceptable salt thereof are described in WO 2005/007165, the contents of which are herein incorporated by reference.

women with endometriosis = test: Phase 2 endometriosis studies: bone mineral density (BMD) over 24 weeks
Procedure: Changes in BMD at the lumbar spine and the femur were evaluated over 24 weeks in three Phase 2 endometriosis studies. […] While a larger effect on BMD is anticipated with a 200 or 300 mg BID regimen compared to that observed with 250 mg QD dosed for 6 months in previous studies, the magnitude of this effect is unknown.

[1] = test system: premenopausal women with uterine fibroids and heavy menstrual bleeding; test: Phase 2a uterine fibroid trial: menstrual blood loss by alkaline hematin (AH) method; settings: for percent of subjects who achieved the composite bleeding endpoint (MBL <80 mL at Final Month and ≥50% reduction in MBL from baseline): last 28 days of treatment, AH method, placebo 30%; for Average Total Blood Loss Measured by AH Method During Treatment: 3 months of treatment; for Average Blood Loss Per Cycle Measured by AH Method in Screening: screening (baseline before treatment)
Procedure: Methods for analyzing menstrual blood loss are known in the art and include, for example, the alkaline hematin method. The alkaline hematin method is based on the quantitation of menstrual blood collected on sanitary products (Hallberg L., Nilsoon L., Determination of Menstrual Blood Loss. Scand. J. Clin. Lab. Invest., 1964; 16:244-248). The method uses a strong alkaline solution to chemically convert the heme from bloodstained sanitary products to alkaline hematin, which is measured colorimetrically. When compared to a subject's serum hemoglobin (Hgb), the volume of blood loss in the menstrual products can be determined.
This example is a Phase 2a, multicenter, double-blind, placebo-controlled, randomized trial (N=280) with a 3-month treatment duration evaluating the safety and efficacy of Elagolix administered with or without Activella® in premenopausal women with uterine fibroids.
It evaluates the safety and efficacy of […] of Elagolix (100 mg BID, 200 mg BID, 200 mg BID plus low dose Activella® (a combination of 0.5 mg estradiol and 0.1 mg northindrone acetate), 300 mg BID, 300 mg BID plus 1.0 mg of Estrace and 200 mg cyclical Prometrium (collectively referred to as “EP”), 400 mg QD and 600 QD) versus placebo (PBO) to reduce uterine bleeding associated with uterine fibroids and to reduce fibroid volume and uterine volume in premenopausal women 20 to 49 years of age with heavy menstrual bleeding (HMB; >80 mL blood loss per menstrual cycle). The study involved the following six (6) cohorts:
There are a number of efficacy endpoints, but a composite endpoint consisting of two bleeding assessments was used to assess one measure of efficacy. It included the percent of subjects who achieved a menstrual blood loss (MBL) volume of <80 mL at the Final Month (last 28 days of treatment), and also achieved a ≥50% reduction in MBL volume from baseline to the Final Month (last 28 days of treatment) as measured by the Alkaline Hematin (AH) method. Eighty-five percent (85%), 97%, and 30% of subjects achieved the composite bleeding assessment endpoint in the 200 mg BID, 300 mg BID, and placebo groups, respectively (P<0.05 for 200 mg BID versus placebo in cohort 1, and 300 mg BID versus placebo in cohort 2). Eighty-two percent (82%) of subjects in the 200 mg BID+low-dose Activella® (low dose Activella® is a combination of (a combination of 0.5 mg estradiol and 0.1 mg norethindrone acetate) group achieved this composite endpoint. With respect to fibroid and uterine volumes, 63%, 55%, and 29% of subjects achieved a ≥25% reduction in fibroid volume and 50%, 68%, and 9% achieved a ≥25% reduction in uterine volume in the 200 mg BID, 300 mg BID, and placebo groups, respectively. In the 200 mg BID+low dose group, 53% and 42% of subjects achieved a ≥25% reduction in fibroid and uterine volume, respectively. Quality of life (QoL) measures were also determined using the “Responsiveness of the uterine fibroid symptom and health-related quality of life questionnaire” (UFS-QOL) (Harding, Gale, Coyne Karin S., Thompson Christine L., Spies James B, United BioSource Corporation, 7101 Wisconsin Avenue, Suite 600, Bethesda, Md., 20814, USA, Health and Quality Life Outcomes, 2008, 6, page 99).

Structure (SMILES): COc1cccc(-c2c(C)n(Cc3c(F)cccc3C(F)(F)F)c(=O)n(C[C@H](NCCCC(=O)O)c3ccccc3)c2=O)c1F [Elagolix, 4-((R)-2-[5-(2-fluoro-3-methoxy-phenyl)-3-(2-fluoro-6-trifluoromethyl-benzyl)-4-methyl-2,6-dioxo-3,6-dihydro-2H-pyrimidin-1-yl]-1-phenyl-ethylamino)-butyric acid]
- suppression of pituitary and ovarian hormones (women): dose dependent suppression
- subjects with decreases in BMD of the spine that exceeded 5% (women with endometriosis; 75 mg BID, 5/62 subjects, 24 weeks, largest study): 8.1%
- largest decrease in BMD of the spine (women with endometriosis; 150 mg QD and 75 mg BID, 24 weeks, largest study): no subject exceeded −8%
- subjects with decreases in BMD of the spine that exceeded 5% (women with endometriosis; 150 mg QD, 2/55 subjects, 24 weeks, largest study): 3.6%
- bone loss (women with endometriosis; doses that provide partial estrogen suppression (target dose 150 mg QD)): modest degree of bone loss
- percent of subjects who achieved the composite bleeding endpoint (MBL <80 mL at Final Month and ≥50% reduction in MBL from baseline) ([1]; 200 mg BID): 85%
- inhibition of bleeding ([1]; 300 mg BID without add-back therapy, most of women achieved amenorrhea): maximum inhibition of bleeding
- percent of subjects who achieved the composite bleeding endpoint (MBL <80 mL at Final Month and ≥50% reduction in MBL from baseline) ([1]; 300 mg BID): 97%
- inhibition of bleeding ([1]; 400 mg QD, compared with 300 mg BID): slightly less effective
- inhibition of bleeding ([1]; 600 mg QD, compared with 300 mg BID): slightly less effective
- Average Total MBL from Days 36-65 Post-Baseline ([1]; Elagolix 100 BID, N = 26): 100.9 mL
- Average Total MBL in Days 66-95 Post-Baseline ([1]; Elagolix 100 BID, N = 26): 65.4 mL
- Average total MBL from days 6-35 post-baseline ([1]; Elagolix 100 BID, N = 26): 33.2 mL
- Average Total Blood Loss Measured by AH Method During Treatment ([1]; Elagolix 100 BID, N = 26): 198.4 mL
- Average Total MBL from Days 36-65 Post-Baseline ([1]; Elagolix 200 BID, N = 28): 5.5 mL
- Average Total MBL in Days 66-95 Post-Baseline ([1]; Elagolix 200 BID, N = 28): 41.5 mL
- Average total MBL from days 6-35 post-baseline ([1]; Elagolix 200 BID, N = 28): 0 mL
- Average Total Blood Loss Measured by AH Method During Treatment ([1]; Elagolix 200 BID, N = 28): 47.0 mL
- Average Total MBL from Days 36-65 Post-Baseline ([1]; Elagolix 300 BID, N = 26): 0 mL
- Average Total MBL in Days 66-95 Post-Baseline ([1]; Elagolix 300 BID, N = 26): 4.3 mL
- Average total MBL from days 6-35 post-baseline ([1]; Elagolix 300 BID, N = 26): 0 mL
- Average Total Blood Loss Measured by AH Method During Treatment ([1]; Elagolix 300 BID, N = 26): 4.3 mL
- Average Total MBL from Days 36-65 Post-Baseline ([1]; Elagolix 400 QD, N = 26): 12.4 mL
- Average Total MBL in Days 66-95 Post-Baseline ([1]; Elagolix 400 QD, N = 26): 21.6 mL
- Average total MBL from days 6-35 post-baseline ([1]; Elagolix 400 QD, N = 26): 14.9 mL
- Average Total Blood Loss Measured by AH Method During Treatment ([1]; Elagolix 400 QD, N = 26): 38.4 mL
- Average Total MBL from Days 36-65 Post-Baseline ([1]; Elagolix 600 QD, N = 24): 35.0 mL
- Average Total MBL in Days 66-95 Post-Baseline ([1]; Elagolix 600 QD, N = 24): 14.9 mL
- Average total MBL from days 6-35 post-baseline ([1]; Elagolix 600 QD, N = 24): 27.6 mL
- Average Total Blood Loss Measured by AH Method During Treatment ([1]; Elagolix 600 QD, N = 24): 69.6 mL
- Average Blood Loss Per Cycle Measured by AH Method in Screening ([1]; group Elagolix 100 BID, N = 26): 276.4 mL
- Average Blood Loss Per Cycle Measured by AH Method in Screening ([1]; group Elagolix 200 BID, N = 28): 287.4 mL
- Average Blood Loss Per Cycle Measured by AH Method in Screening ([1]; group Elagolix 300 BID, N = 26): 224.8 mL
- Average Blood Loss Per Cycle Measured by AH Method in Screening ([1]; group Elagolix 400 QD, N = 26): 220.3 mL
- Average Blood Loss Per Cycle Measured by AH Method in Screening ([1]; group Elagolix 600 QD, N = 24): 228.7 mL

Source: US11707464B2, “Methods of treating heavy menstrual bleeding” (AbbVie Inc., priority 2013, dated 2023)
